Experiments:
[1] = molecular target: T1, STAT1 (Homo sapiens, UniProt P42224); experiment: Fluorescence polarization (FP) binding assay, STAT1
T1 sequence (P42224 1-750): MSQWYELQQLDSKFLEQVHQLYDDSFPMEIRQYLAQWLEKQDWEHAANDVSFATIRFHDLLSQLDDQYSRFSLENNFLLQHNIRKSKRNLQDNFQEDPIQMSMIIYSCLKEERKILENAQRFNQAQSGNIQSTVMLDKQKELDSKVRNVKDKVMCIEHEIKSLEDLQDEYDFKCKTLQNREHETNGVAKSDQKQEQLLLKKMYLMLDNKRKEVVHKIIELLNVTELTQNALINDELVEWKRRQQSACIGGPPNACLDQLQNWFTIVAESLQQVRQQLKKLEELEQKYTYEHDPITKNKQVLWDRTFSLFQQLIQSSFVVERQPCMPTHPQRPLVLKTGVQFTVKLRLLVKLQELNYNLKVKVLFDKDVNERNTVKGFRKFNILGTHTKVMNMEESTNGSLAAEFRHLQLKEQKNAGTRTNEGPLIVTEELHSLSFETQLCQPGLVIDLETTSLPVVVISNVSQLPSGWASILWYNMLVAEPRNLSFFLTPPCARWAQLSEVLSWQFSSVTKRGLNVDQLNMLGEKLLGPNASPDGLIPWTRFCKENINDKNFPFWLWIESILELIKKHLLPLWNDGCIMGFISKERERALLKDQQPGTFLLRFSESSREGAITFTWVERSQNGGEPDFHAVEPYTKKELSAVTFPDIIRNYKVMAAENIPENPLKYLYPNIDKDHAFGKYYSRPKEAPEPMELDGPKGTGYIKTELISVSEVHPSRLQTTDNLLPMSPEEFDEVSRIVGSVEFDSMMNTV
Description: (§1) Ki values were calculated from IC50 values using the published equation.[2] […]
(§2) Table S2: Activities of 12 against STAT5 proteins in FP assays.
(§3) Fluorescence polarization assays
(§4) Fluorescence polarization assays were essentially carried out as previously described.[1] These assays quantitate to which extent a test compound is able to interfere with binding between a STAT protein and a fluorescein-labeled phosphotyrosine-containing peptide, which is known to bind to the SH2 domain of the respective STAT protein. The following protein […]
(§5) concentrations were used: 100 nM for STAT1, 150 nM for STAT3, 30 nM for STAT4, 180 nM for STAT5a, 90 nM for STAT5b and 105 nM for STAT6. All peptides were used at a concentration of 10 nM. The following peptides were used: 5 -carboxyfluorescein -GpYDKPHVL for STAT1; 5-carboxyfluorescein -GpYLPQTV-NH2 for STAT3; 5-carboxyfluorescein-GpYLPQNID-OH for STAT4; 5-carboxyfluorescein-GpYLVLDKW for STAT5a/b, and 5-carboxyfluorescein-GpYVPWQDLI-OH for STAT6. As a buffer system, 10 mM Tris (pH 8.0), 50 mM NaCl, 1 mM EDTA, 1 mM DTT, 0.1 % Nonidet P-40 substitute, and 2 % DMSO in water was used. All compounds tested were incubated for 1 h with the protein. Subsequently, the fluorescein-labeled peptide was added and the fluorescence polarization was measured with an Infinite F500 plate reader (Tecan) after another hour. IC50 values were converted to Ki-values using the published equation.[2] […]
(§6) 3:2 solution was added . The solution was degassed by applying ultrasonic under vacuum for one minute four times. 14 mg of Pd(PPh3)4 (12 µmol, 5 mol %) were added and the solution was refluxed overnight. After cooling down, the mixture was extracted with ethyl acetate, washed with brine and dried over Na2SO4. The crude product was purified by flash column […]
(§7) Method 2: Synthesis of dibenzylphosphate esters
(§8) The corresponding phenol (1 eq.) was dissolved in 10 ml/mmol MeCN or DMF and CCl4 (5 eq.), DIPEA (2 eq.) and DMAP (0.1 eq.) were added. After cooling down to 0°C, dibenzyl phosphite (1.5 eq.) was added dropwise and stirring was continued at the same temperature. […]

[2] = molecular target: T2, STAT6 (Homo sapiens, UniProt P42226); experiment: Fluorescence polarization (FP) binding assay, STAT6
T2 sequence (P42226 1-847): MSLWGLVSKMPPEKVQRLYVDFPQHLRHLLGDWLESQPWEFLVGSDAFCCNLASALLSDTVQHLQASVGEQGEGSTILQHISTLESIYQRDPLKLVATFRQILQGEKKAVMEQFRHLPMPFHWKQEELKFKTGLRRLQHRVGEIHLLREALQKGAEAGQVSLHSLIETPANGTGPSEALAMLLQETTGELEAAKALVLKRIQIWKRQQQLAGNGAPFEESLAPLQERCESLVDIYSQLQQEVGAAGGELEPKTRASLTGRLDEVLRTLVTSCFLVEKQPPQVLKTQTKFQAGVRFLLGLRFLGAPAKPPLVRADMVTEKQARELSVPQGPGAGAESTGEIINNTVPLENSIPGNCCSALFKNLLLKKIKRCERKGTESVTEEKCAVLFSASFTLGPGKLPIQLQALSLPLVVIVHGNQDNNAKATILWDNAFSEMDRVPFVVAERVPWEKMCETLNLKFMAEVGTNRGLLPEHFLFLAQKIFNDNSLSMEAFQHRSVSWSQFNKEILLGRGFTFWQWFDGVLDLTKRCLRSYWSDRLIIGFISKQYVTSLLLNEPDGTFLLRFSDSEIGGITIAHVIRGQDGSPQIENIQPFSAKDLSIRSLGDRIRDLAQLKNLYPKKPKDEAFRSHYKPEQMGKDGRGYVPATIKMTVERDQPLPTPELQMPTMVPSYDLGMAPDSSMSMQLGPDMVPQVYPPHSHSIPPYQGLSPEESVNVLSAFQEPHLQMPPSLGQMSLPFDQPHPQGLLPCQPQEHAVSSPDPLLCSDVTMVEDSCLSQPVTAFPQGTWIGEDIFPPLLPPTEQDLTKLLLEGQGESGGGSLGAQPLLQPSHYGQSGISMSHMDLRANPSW
Description: as §1, §2, §3, §4, §5, §6, §7, §8

[3] = FP assay, Ki calculated from IC50 (n=3)

| IC50 ([1]; FP assay) [µM] | Ki [1, 3] [µM] | IC50 ([2]; FP assay) [µM] | Ki [2, 3] [µM] | Compound | inhibition at 200 µM ([1]; read-out: STAT1 inhibition at 200 μM) [%] | inhibition at 200 µM ([2]; read-out: STAT6 inhibition at 200 μM) [%] |
| --- | --- | --- | --- | --- | --- | --- |
| 90.6 ± 0.2 | 44.6 ± 0.1 | 144 ± 2.8 | 71.5 ± 1.4 | COc1cc(-c2cc(-c3cc(F)c(F)c(F)c3)cc(C(F)P(=O)(O)O)c2)cc(OC)c1OC (stereo not drawn) [compound 12] | – | – |
| – | – | – | – | COc1cc(-c2cc(OP(=O)(O)O)cc(-c3cc(F)c(F)c(F)c3)c2)cc(OC)c1OC [6 b] | 51 ± 5 | 39 ± 1 |

Source: article PMC9303812, “Asymmetrically Substituted m‐Terphenyl Phosphates Inhibit the Transcription Factor STAT5a” (Chembiochem, 2021)
